The record followed here is ChEMBL document CHEMBL1955725, “Structure-guided lead optimization of triazolopyrimidine-ring substituents identifies potent Plasmodium falciparum dihydroorotate dehydrogenase inhibitors with clinical candidate potential” (J Med Chem, 2011).

Data set [1] can be described thus: in vivo. The conditions noted are these: NOD-SCID IL-2Rgamma-null, mouse, po, 10 mg/kg.
Data set [2] can be described thus: in vivo. The conditions noted are these: NOD-SCID IL-2Rgamma-null, mouse, po, 10 mg/kg. This is another data set of the same source.
Data set [3] concerns Mus musculus. Briefly: AUC (0 to 10 hrs) in human RBC engrafted NOD-SCID IL-2Rgamma-null mouse infected with Plasmodium falciparum 3D7 0087/N9 at 10 mg/kg, po. In kind it is ADME, organism-based, Plasma. Set-up: time < 10 hr, dose 10 mg/kg, route oral. As to conditions: in vivo.
Data set [4] is described as follows: Cmax in human RBC engrafted NOD-SCID IL-2Rgamma-null mouse at 10 mg/kg, po. In kind it is ADME, organism-based. Set-up: dose 10 mg/kg, route oral. As to conditions: in vivo.
Data set [5] in a line: Cmax in human RBC engrafted NOD-SCID IL-2Rgamma-null mouse infected with Plasmodium falciparum 3D7 0087/N9 at 10 mg/kg, po. The conditions noted are these: in vivo. In kind it is ADME, organism-based. Set-up: dose 10 mg/kg, route oral.
The subject of data set [6] is Plasmodium falciparum. In words: Antimalarial activity against Plasmodium falciparum 3D7 0087/N9 infected in human RBC engrafted NOD-SCID IL-2Rgamma-null mouse assessed as reduction in parasitemia administered orally 3 days post infection qd for 4 days measured 24 hrs after final dose by FACS analysis. In kind it is functional. As to conditions: 3D7 0087/N9, po. A general note: In flow cytometry, cells or beads pass a laser one at a time.

Data set [7] relates to Mus musculus. Briefly: AUC (0 to 10 hrs) in human RBC engrafted NOD-SCID IL-2Rgamma-null mouse at 10 mg/kg, po. In kind it is ADME, organism-based, Plasma. Set-up: time < 10 hr, dose 10 mg/kg, route oral. As to conditions: in vivo.
Data set [8] is described as follows: AUC (0 to infinity) in Swiss outbred mouse plasma at 20 mg/kg, po. More on the design: time infinity, dose 20 mg/kg, route oral. In kind it is ADME, organism-based.
Data set [9] can be described thus: Inhibition of Plasmodium berghei C-terminal hexa-His tagged DHODH expressed in Escherichia coli by DCIP reduction assay.
The nature of data set [10]: Cmax in Swiss outbred mouse at 20 mg/kg, po. As to conditions: in vivo. It is filed as ADME, organism-based. More on the design: dose 20 mg/kg, route oral.
The nature of data set [11]: Terminal elimination half life in Swiss outbred mouse at 20 mg/kg, po. It is filed as ADME, organism-based. More on the design: dose 20 mg/kg, route oral. As to conditions: in vivo, read-out: beta t1/2 (converted).
The subject of data set [12] is Plasmodium falciparum. Briefly: Antimalarial activity against Plasmodium falciparum 3D7 by [3H]hypoxanthine incorporation assay in presence of human serum. It is filed as functional, organism-based.
A short description of data set [13]: Aqueous solubility of the compound at pH 6.5. It is filed as physicochemical.
Another data set concerns Liver. Briefly: Intrinsic clearance in mouse liver microsomes. It is filed as ADME, Microsome.
Another data set relates to Plasma. In words: Plasma protein binding in human by chromatographic method. It is filed as ADME, cell-free.
Data set [14] deals with T1, Dihydroorotate dehydrogenase (Plasmodium falciparum, UniProt Q54A96).
T1 sequence (Q54A96 whole entry): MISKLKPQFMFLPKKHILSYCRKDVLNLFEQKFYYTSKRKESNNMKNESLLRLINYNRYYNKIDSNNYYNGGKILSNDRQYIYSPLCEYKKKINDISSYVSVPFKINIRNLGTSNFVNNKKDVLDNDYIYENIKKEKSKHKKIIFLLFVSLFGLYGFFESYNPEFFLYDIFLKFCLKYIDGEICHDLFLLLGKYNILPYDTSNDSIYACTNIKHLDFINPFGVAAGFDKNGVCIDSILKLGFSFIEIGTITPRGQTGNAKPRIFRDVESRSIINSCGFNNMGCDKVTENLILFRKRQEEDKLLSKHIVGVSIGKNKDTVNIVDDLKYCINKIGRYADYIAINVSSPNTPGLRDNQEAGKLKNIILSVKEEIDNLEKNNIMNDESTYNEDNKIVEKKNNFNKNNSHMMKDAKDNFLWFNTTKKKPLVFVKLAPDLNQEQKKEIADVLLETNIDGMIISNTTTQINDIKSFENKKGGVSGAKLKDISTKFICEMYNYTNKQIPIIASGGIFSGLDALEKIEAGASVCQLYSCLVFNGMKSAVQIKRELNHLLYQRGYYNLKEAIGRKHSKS
Description: Inhibition of Plasmodium falciparum C-terminal hexa-His tagged DHODH expressed in Escherichia coli by DCIP reduction assay

Data set [15] in a line: Lipophilicity, log D of the compound at pH 7.4. It is filed as physicochemical. The conditions noted are these: buffer.
The test system of data set [16] is Mus musculus. In words: Time plasma concentration remained above 1 uM in Swiss outbred mouse plasma at 20 mg/kg, po. In kind it is ADME, organism-based. Set-up: dose 20 mg/kg, route oral. As to conditions: in vivo.
The nature of data set [17]: in vivo. As to conditions: Swiss outbred, mouse, po, 20 mg/kg.
Data set [18] has as its target Dihydroorotate dehydrogenase (quinone), mitochondrial (Homo sapiens, UniProt Q02127).
Description: Inhibition of human C-terminal hexa-His tagged DHODH expressed in Escherichia coli by DCIP reduction assay
For another data set, the system named is Liver microsomes. In words: Intrinsic clearance in human liver microsomes. In kind it is ADME, Microsome. A general note: Liver microsomes are vesicles of endoplasmic reticulum, rich in cytochrome P450 enzymes.

Usually Tmax stands for the time from dosing to the highest level. The AUC is concentration integrated over time. Lower therefore signals low exposure. Usually Cmax stands for the peak of the concentration-time curve. The term ED50 denotes the dose that gives a 50% effect, or the effect in half of the subjects. As a reminder, the AUC(0-inf) is total exposure, with the tail of the curve extrapolated. Read a low AUC(0-inf) as low exposure. What is called IC50 is the concentration needed to halve the response being measured. Low values mean greater potency in that assay, high ones weaker potency in that assay. As a reminder, the EC50 is the midpoint of the concentration-response curve. In general, solubility refers to the concentration that dissolves in the medium under given conditions. By logD is commonly meant lipophilicity at a set pH, counting ionised and neutral species. Higher therefore signals a more lipophilic compound.

Converted amounts (≈) assume the structure as drawn.

Dihydroorotate dehydrogenase (quinone), mitochondrial, sequence (Q02127 whole entry): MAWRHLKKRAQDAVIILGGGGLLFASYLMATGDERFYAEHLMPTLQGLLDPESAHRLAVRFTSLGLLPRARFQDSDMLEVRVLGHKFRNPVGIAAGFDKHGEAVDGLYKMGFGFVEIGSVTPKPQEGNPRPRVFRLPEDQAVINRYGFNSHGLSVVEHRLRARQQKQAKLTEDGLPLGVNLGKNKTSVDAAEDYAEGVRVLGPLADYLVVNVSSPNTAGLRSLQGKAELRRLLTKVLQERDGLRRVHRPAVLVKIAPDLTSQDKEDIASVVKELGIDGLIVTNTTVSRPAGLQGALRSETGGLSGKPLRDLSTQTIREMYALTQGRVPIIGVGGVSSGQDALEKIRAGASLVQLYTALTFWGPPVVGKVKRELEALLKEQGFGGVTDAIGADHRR

As for `Cc1cc(Nc2cc(F)c(C(F)(F)F)c(F)c2)n2ncnc2n1`, the values for the Tmax in the data set “in vivo [1]” and in “in vivo [2]” were 3.3 h and 2 h, respectively. Moreover, the AUC stood at 3173 µM·min in the data set with Mus musculus [3] and 3848 µM·min with Mus musculus [7]. Also, the Cmax in [4] was 8.5 µM; in [5], 8.2 µM. Moreover, the ED50 in the data set on Plasmodium falciparum [6] was 19 mg/kg. Further, in the data set with Plasmodium falciparum [6], the ED90 amounted to 59 mg/kg.

Compound `CCc1nc2nc(C)cc(Nc3ccc(C(F)(F)F)cc3)n2n1` showed an AUC(0-inf) in data set [8] of 27.1 µM·h. For the same compound, the IC50 in data set [9] was 760 nM; in data set [14] it was 87 nM; in [18], above 100000 nM. Also, the Cmax in data set [10] was determined as 12.6 µM. Moreover, the half-life in [11] was 8.4 h. Also, the EC50 in the data set with Plasmodium falciparum [12] is 58 nM. In data set [13], this compound came in with a solubility of 39 µM (≈ 12.5 µg/mL). Besides, the Intrinsic clearance in the data set on Liver is 14.4 µL/min/mg; in the data set on Liver microsomes it was below 5 µL/min/mg. Moreover, the PPB in the data set with Plasma was determined as 87.5%. This compound also displayed a logD in data set [15] of 3. Further, the Time in the data set with Mus musculus [16] was determined as 5 h. Moreover, the Tmax in “in vivo [17]” is 1 h.

`CCOc1nc2nc(C)cc(Nc3ccc(C(F)(F)F)cc3)n2n1`: the AUC(0-inf) in data set [8] was 20.7 µM·h. The IC50 is 2700 nM in data set [9], 56 nM in data set [14] and above 100000 nM in [18]. This compound also had a maximum concentration (Cmax) in [10] of 5.8 µM. Also, in data set [11], the half-life was 1.4 h. For the same compound, the EC50 with Plasmodium falciparum [12] is 58 nM. Besides, the concentration in solution in data set [13] (solubility) came to 19 µM (≈ 6.41 µg/mL). Also, the Intrinsic clearance in the data set on Liver is 14.4 µL/min/mg; with Liver microsomes it was 7 µL/min/mg. In the data set on Plasma, the PPB turned out to be 92.4%. In addition, the logD in [15] is 3.1. Moreover, the Time with Mus musculus [16] came to 6 h. For the same compound, the Tmax in “in vivo [17]” was 1 h.
